Patent publication US20020072051A1, “Screen for identifying inhibitors of GPI anchoring” (priority 2000, published 2002)

Key:
[1] = system: UPR pathway; assay: UPRE::lacZ reporter induction screen (primary assay); assay type: cell-based, Saccharomyces cerevisiae; conditions: yeast cells containing 3X UPRE-CYClMINlacz, S. cerevisiae Δmdr mutant
Description: Several UPRE::lacz reporter plasmids were constructed and used to transform a S. cerevisiae Δ mdr mutant and the transformants assessed for their ability to selectively respond to tunicamycin. The reporter sequence 3X UPRE-CYClMINlacz (FIG. 2) provided a selective, sensitive, and robust screening response to tunicamycin treatment and was selected for use in the Very High Throughput Screen (vHTS; Example 2). […] The activity of an associated β-galactosidase reporter gene thus served as an indirect signal of UPR-pathway stimulation.
The yeast strains were diploid Δmdr mutants of Saccharomyces cerevisiae: MMB 1663 (3XUPRE CYClMIN::lacz). Yeast glycerol stocks were prepared by culturing MMB 1663 (3XUPRE CYClMIN::lacZ) overnight to an OD 600 nm of 0.500. The culture was concentrated by centrifugation at 1000×g for 10 minutes and the pellet resuspended in fresh medium to an OD 600 nm of 1.00. An equal volume of HR Medium with 50% glycerol was added, producing a suspension of cells with an OD 600 nm of 0.500 and a final concentration of 25% glycerol. […]
4. […] (Packard TopSeal-A Plate Tape is not required for either plate reader when volumes are ≦50 μl for 384-well or ≦200 μl for 96-well plates).
5. After 90 minutes, β-galactosidase activity was read, using a 90 to 240 minute window. […]

[2] = system: GPI anchor biosynthesis; assay: in-vitro GPI anchor biosynthesis assay; assay type: biochemical; conditions: UDP-[3H]-GlcNAc, ATP, Coenzyme A, GDP-mannose; TLC
Description: Crude lysate from hypotonic lysing of spheroplasts as well as microsomal preparations can be used as an enzyme source for a coupled in vitro assay. Addition of UDP-[^3H]-GlcNAc, ATP, Coenzyme A and GDP-mannose provides the necessary substrates to synthesize a complete precursor from endogenous PI and fatty acid.

[3] = biological target: T1, Mcd4p (Saccharomyces cerevisiae, UniProt P36051); assay: MCD4 overexpression and inositol-labeling experiments in mcd4-174; assay type: cell-based; conditions: MCD4 overexpression; mcd4-174 mutant strain
T1 construct: overexpressed by cloning the gene under the control of its endogenous promoter in 2 micron (multi-copy) vectors; expressed in transfected cells; host or cells: yeast (S. cerevisiae) cells carrying MCD4 on a 2 micron multi-copy vector; also the mcd4-174 mutant strain for inositol labelling
T1 sequence (P36051 1-919): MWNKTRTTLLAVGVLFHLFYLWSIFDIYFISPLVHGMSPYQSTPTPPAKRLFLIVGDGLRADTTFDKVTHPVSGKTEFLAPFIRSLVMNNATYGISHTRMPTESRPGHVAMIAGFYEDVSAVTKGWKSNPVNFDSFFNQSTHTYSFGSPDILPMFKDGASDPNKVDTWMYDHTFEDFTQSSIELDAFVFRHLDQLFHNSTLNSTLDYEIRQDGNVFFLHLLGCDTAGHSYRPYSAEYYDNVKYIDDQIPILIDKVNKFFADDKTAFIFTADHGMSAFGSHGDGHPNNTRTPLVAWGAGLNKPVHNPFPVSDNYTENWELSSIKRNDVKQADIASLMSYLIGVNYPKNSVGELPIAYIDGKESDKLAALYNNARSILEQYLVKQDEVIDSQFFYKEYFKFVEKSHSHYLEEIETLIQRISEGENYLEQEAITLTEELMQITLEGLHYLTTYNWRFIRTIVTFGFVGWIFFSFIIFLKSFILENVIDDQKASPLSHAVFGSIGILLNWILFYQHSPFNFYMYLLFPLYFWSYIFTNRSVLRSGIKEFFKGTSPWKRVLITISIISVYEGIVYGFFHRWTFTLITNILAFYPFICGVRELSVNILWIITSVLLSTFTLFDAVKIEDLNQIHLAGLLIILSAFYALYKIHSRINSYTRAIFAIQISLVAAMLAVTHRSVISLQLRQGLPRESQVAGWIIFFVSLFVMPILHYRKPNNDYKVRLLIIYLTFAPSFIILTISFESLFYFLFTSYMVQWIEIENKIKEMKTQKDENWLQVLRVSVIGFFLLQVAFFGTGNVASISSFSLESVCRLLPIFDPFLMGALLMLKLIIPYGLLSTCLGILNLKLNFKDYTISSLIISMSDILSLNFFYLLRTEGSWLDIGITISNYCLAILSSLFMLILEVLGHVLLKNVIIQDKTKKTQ
Description: An overexpression resistance (OER) assay was employed to determine the cellular target of compounds isolated via the primary assay. Each of the known genes in the GPI pathway were overexpressed by cloning the gene under the control of its endogenous promoter in 2 micron (multi-copy) vectors. This is a rapid and very powerful assay, but has certain limitations. For example, with a number of hits, precipitation of the compound can be observed when spotted onto plates. […] In such cases, the ability to detect increased resistance in the shoulder region is limited by the small zone size. […] Therefore, the OER assay, while very powerful and rapid, may be limiting when working with compounds that are weakly AF.
Studies on a natural compound, CJ-19089 (also known as YW3548, a terpenoid lactone) have documented that this compound targets the MCD4 catalyzed step in the GPI-anchor biosynthesis pathway. […] This inhibitor has proven to be a very valuable tool for examining the pathway and establishing standards for chromatographic analysis. […] CJ-19089 was used as a positive control in each assay and was used in comparison to untreated samples for assay development.

[4] = system: MCD4 catalyzed step in the GPI-anchor biosynthesis pathway; conditions: cited from earlier work
[5] = system: wild type yeast strain; assay: SDS hypersensitivity assay; assay type: cell-based; conditions: SDS in the growth media
Description: Published data on a mcd4 mutant strain have shown that it has a number of characteristic phenotypes including increased sensitivity to SDS, an osmotic destabilizing detergent. The presence of as little as 0.004% SDS in the growth media leads to increased sensitivity of a wild type yeast strain to GPI-anchor inhibitors and thereby allows for the rapid screening of analogs. Again, this is a potentially information-rich assay but is subject to the same technical limitations discussed above for the OER assay.

## tunicamycin
[1]
  lacZ reporter gene transcription (UPR-pathway stimulation): over transcribed

## C=C1[C@@H]2C[C@@H]3[C@H](C(C)C)[C@@H](OC(=O)CC(C)(O)CC(C)CC)C[C@@]3(C)C[C@H]2/C(C)=C\C[C@@H]2[C@@H](C)OC(=O)[C@H](O)[C@]12O (some centres unmarked) [CJ-19089]
[2]
  accumulation of CJ-lipid: the CJ-lipid can be visualized
[3]
  cellular target: the target of this compound is Mcd4p
[4]
  incorporation of [3H]myo-inositol into proteins: prevents the incorporation of [^3H]myo-inositol into proteins
  step of GPI anchor biosynthesis blocked: specifically blocks the addition of the third mannose to the intermediate structure Man2-GlcN-acylPI
  toxicity: toxic
  transport of GPI-anchored proteins to the Golgi apparatus: prevents transport of GPI-anchored proteins to the Golgi apparatus

## OC(Cn1cncn1)(Cn1cncn1)c1ccc(F)cc1F [fluconazole]
[5]
  result on SDS plates: unambiguous positive result
